We go through 19 compounds from patent US5134140A, “Psychotropic benzofuran derivatives” (American Home Products Corporation, priority 1991, dated 1992).

As a reminder, the inhibition is the share of the control response that was lost under treatment. Broadly, the IC50 is the concentration that inhibits the measured activity by half. Read a high IC50 as weaker potency in that assay. Usually ED50 stands for the dose that gives a 50% effect, or the effect in half of the subjects.

Entries after “also recorded” stand apart in the source; their conditions may differ. Like-named read-outs stand apart in the source and are kept apart here.

One assay concerns the target T1, dopamine D2 receptor (Rattus norvegicus, UniProt P61169).
T1 construct: from tissue; host or cells: homogenized limbic brain tissue
The experiment in a line: D-2 binding, 3H-spiroperidol, homogenized limbic brain tissue. As to the method:
Modest affinity for the dopamine D2 receptor was established by the standard experimental test procedure of Fields, et al., Brain Res., 136, 578 (1977) and Yamamura et al., eds., Neurotransmitter Receptor Binding, Raven Press, N.Y. (1978) wherein homogenized limbic brain tissue is incubated with ^3 H-spiroperidol and various concentrations of test compound, filtered and washed and shaken with Hydrofluor scintillation cocktail (National Diagnostics) and counted in a Packard 460 CD scintillation counter.

Assay [1] has as its target T2, serotonin 5-HT1A receptor (Rattus norvegicus, UniProt P19327).
T2 construct: following the procedure of Hall et al., J. Neurochem; 44, 1685 (1985); from tissue
T2 sequence (P19327 1-422): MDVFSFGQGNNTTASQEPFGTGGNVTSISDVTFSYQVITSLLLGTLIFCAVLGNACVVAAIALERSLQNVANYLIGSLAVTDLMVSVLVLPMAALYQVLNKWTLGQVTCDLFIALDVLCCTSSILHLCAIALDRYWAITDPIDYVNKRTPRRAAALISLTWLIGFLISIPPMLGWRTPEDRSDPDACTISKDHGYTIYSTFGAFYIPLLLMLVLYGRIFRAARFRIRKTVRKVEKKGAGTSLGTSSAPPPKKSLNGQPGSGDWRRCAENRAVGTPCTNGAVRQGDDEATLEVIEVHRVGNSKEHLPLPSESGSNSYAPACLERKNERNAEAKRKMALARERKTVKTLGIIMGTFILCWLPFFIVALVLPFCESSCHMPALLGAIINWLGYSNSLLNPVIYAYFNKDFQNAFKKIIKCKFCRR
The assay is described as follows: 5-HT1A binding, displacement of [3H] 8-OHDPAT. An excerpt:
High affinity for the serotonin 5-HT1A receptor was established by testing the claimed compound's ability to displace [^3 H] 8-OHDPAT (dipropylaminotetralin) from the 5-HT1A serotonin receptor following the procedure of Hall et al., J. Neurochem. 44, 1685 (1985). […] The anxiolytic activity of buspirone is believed to be, at least partially, due to its 5-HT1A receptor affinity (Vander Maclen et al., Eur. J. Pharmacol. 1986, 129 (1-2) 133-130).
In general terms: Loss of bound radioactivity is the signal in a displacement assay; it reports binding, not function.

The next assay has as its system 5-HT1A receptor. The following applies: cited from earlier work.
The subject of the next assay is serotonin syndrome. The assay is described as follows: ability to produce or antagonize the serotonin syndrome in rats. The following applies: for ED50: Rattus norvegicus. The class given is in vivo, male Sprague-Dawley CD rats. The method, then:
Certain of the compounds of this invention were also compared to buspirone in their ability to either produce or antagonize the serotonin syndrome according to the procedure of Smith and Peroutka, Pharmacol. Biochem. Behav. 24:1513-1519, 1986, in which 250-350 g male Sprague-Dawley CD rats (Charles River) are given either test compound or vehicle and placed individually into plexiglass observation cages. Agonist activity of the compound is determined by scoring for the presence of the serotonin syndrome (forepaw treading, head weaving, tremor, hindlimb abduction, flattened body posture, and Straub tail) during the first 15 minutes after compound administration. Antagonist activity is then determined by a challenge with either of the 5-HT1A agonists 5-methoxy-N,N-dimethyltryptamine (5-MeODMT) or 8-hydroxydipropylaminotetralin.

Assay [2] has as its target T2, serotonin 5-HT1A receptor. As to conditions: buspirone standard; cited from earlier work.
The mark [3] stands for this setting: antagonist activity, challenge with 5-MeODMT or 8-hydroxydipropylaminotetralin, agonist not specified for these values, read-out: ED50, antagonize the serotonin syndrome.

T1 sequence (P61169 whole entry): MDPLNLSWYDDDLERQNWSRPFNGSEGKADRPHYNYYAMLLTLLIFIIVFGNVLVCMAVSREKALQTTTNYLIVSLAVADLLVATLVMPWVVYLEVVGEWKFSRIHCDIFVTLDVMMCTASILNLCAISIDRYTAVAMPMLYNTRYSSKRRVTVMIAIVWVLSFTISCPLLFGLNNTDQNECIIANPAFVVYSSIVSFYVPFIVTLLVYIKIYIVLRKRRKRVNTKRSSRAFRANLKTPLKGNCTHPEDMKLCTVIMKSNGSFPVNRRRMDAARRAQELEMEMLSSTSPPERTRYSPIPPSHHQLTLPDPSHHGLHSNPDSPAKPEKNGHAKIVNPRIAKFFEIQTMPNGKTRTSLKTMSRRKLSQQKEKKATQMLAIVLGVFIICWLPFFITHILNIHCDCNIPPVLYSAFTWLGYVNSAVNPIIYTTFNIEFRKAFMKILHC

`COc1cccc2cc(CNCCNC(=O)C34CCC(CC3=O)C4(C)C)oc12` (single isomer, unassigned) [Example 5, N-[2-[[(7-Methoxy-2-benzofuranyl)methyl]amino]ethyl]-7,7-dimethyl-2-oxobicyclo[2.2.1]heptane-1-carboxamide] gave an inhibition at 1 µM on dopamine D2 receptor of 4%. Also, in assay [1], testing at 0.1 µM gave an inhibition of 87%.
In the case of `O=C1CC2(CCCC2)CC(=O)N1CCCCNCC1COc2ccccc2O1` (single isomer, unassigned; (-)) [(-)-MDL 72832], in the assay with 5-HT1A receptor ((-)-isomer vs dextrorotary isomer), the “binding at the 5-HT1A receptor site relative to the dextrorotary isomer” value is 32 times.
Take `COc1cccc2cc(CNCCN3C(=O)C4C5C=CC(C6C=CC65)C4C3=O)oc12` (stereo not shown) [Example 1, 3a, 4,4a, 6a, 7,7a-Hexahydro-2-[2-[[(7-methoxy-2-benzofuranyl)methyl]amino]ethyl]-4,7-etheno-1H-cyclobut[f]isoindole-1,3(2H)-dione]: at 0.1 µM the inhibition in assay [1] was 31%.
As for `COc1cccc2cc(CNCCNC(=O)C34CC5CC(CC(C5)C3)C4)oc12` [Example 2, N-[2-[[(7-Methoxy-2-benzofuranyl)methyl]amino]ethyl]tricyclo[3.3.1.1^3,7]decane-1-carboxamide], 1 µM produced 29% inhibition at dopamine D2 receptor. Further, in assay [1], the half-inhibitory concentration (IC50) came out at 0.5 nM and the inhibition at 0.1 µM worked out at 100%. In addition, the ED50 in the assay with serotonin syndrome (setting [3]) came out at 11.7 mg/kg.
`COc1cccc2cc(CNCCN3C(=O)CC4(CCCC4)CC3=O)oc12` [Example 3, 8-[2-[[(7-Methoxy-2-benzofuranyl)methyl]amino]ethyl]-8-azaspiro[4.5]decane-7,9-dione] showed an inhibition at 1 µM on dopamine D2 receptor of 72%. Also, the inhibition at 0.1 µM in assay [1] came out at 61%.
Taken in the same sequence, the figures for `COc1cccc2cc(CNCCN3C(=O)C4CC(C3=O)C3C4C4C5CC6C4C6C53)oc12` (stereo not shown) [Example 4, Decahydro-3-[2-[[(7-methoxy-2-benzofuranyl)methyl]amino]ethyl]-1,5-methano-6,7,9-metheno-2H-pentaleno[1,2-d]azepine-2,4(3H)-dione] were 49% and 59%.
Compound `COc1cccc2cc(CNCCNC(=O)c3ccc(F)cc3)oc12` [Example 6] came in with an inhibition at 1 µM on dopamine D2 receptor of 70%. Besides, the inhibition at 0.1 µM in assay [1] was found to be 87%.
In turn, `COc1cccc2cc(CNCCNC(=O)C34CC5CC(CC3C5)C4)oc12` [Example 7, N-[2-[[(7-Methoxy-2-benzofuranyl)methyl]amino]ethyl]hexahydro-2,5-methanopentalene-3a(1H)-carboxamide] displayed an inhibition at 0.1 µM in assay [1] of 99%. Further, the ED50 in the assay on serotonin syndrome (setting [3]) came out at 15.4 mg/kg.
`COc1cccc2cc(CNCCNC(=O)C3(C)CCCCC3)oc12` [Example 8, N-[2-[[(7-Methoxy-2-benzofuranyl)methyl]amino]ethyl]-1-methyl-1-cyclohexanecarboxamide]: in assay [1], the inhibition at 0.1 µM worked out at 92%.
On the same count and under the same terms, next, `COc1ccc2cc(CNCCNC(=O)C34CC5CC(CC(C5)C3)C4)oc2c1OC` [Example 9, N-[2-[[(6,7-Dimethoxy-2-benzofuranyl)methyl]amino]ethyl]tricyclo[3.3.1.1^3,7]decane-1-carboxamide]: 63%.
In assay [1], `COc1cccc2cc(CN(C)CCNC(=O)C34CC5CC(CC(C5)C3)C4)oc12` [Example 10, N-[2-[[(7-Methoxy-2-benzofuranyl)methyl]methylamino]ethyl]tricyclo[3.3.1.1^3,7]decane-1-carboxamide] came in with an IC50 of 9 nM and an inhibition at 0.1 µM of 90%.
Consider `COc1cccc2cc(CNCCNC(=O)C(C)(C)C)oc12` [Example 11, N-[2-[[(7-Methoxy-2-benzofuranyl)methyl]amino]ethyl]-2,2-dimethylpropanamid], for which testing at 0.1 µM in assay [1] gave an inhibition of 38%.
Still for that read-out and setting: next, `O=C(NCCNCc1cc2ccc(OCc3ccccc3)cc2o1)C12CC3CC(CC(C3)C1)C2` [Example 12, N-[2-[[(6-Phenylmethoxy-2-benzofuranyl)methyl]amino]ethyl]tricyclo[3.3.1.1^3,7]decane-1-carboxamide]: 20%.
On the same count and under the same terms, the same measure for `O=C(NCCNCc1cc2cccc(F)c2o1)C12CC3CC(CC(C3)C1)C2` [Example 13, N-[2-[[(7-Fluoro-2-benzofuranyl)methyl]amino]ethyl]tricyclo[3.3.1.1^3,7]decane-1-carboxamide]: 95%; for `O=C(NCCNCc1cc2cc(O)ccc2o1)C12CC3CC(CC(C3)C1)C2` [Example 15, N-[2-[[(5-Hydroxy-2-benzofuranyl)methyl]amino]ethyl]tricyclo[3.3.1.1^3,7]decane-1-carboxamide]: 64%; for `O=C(NCCNCc1cc2cccc(Cl)c2o1)C12CC3CC(CC(C3)C1)C2` [Example 16, N-[2-[[(7-Chloro-2-benzofuranyl)methyl]amino]ethyl]tricyclo[3.3.1.1^3,7]decane-1-carboxamide]: 97%.
On the same count and under the same terms, the same measure for `O=C(NCCNCc1cc2ccc(O)cc2o1)C12CC3CC(CC(C3)C1)C2` [Example 17, N-[2-[[(6-Hydroxy-2-benzofuranyl)methyl]amino]ethyl]tricyclo[3.3.1.1^3,7]decane-1-carboxamide]: 88%.
As to `O=C1CC2(CCCC2)CC(=O)N1CCCCNCC1COc2ccccc2O1` (stereo not shown) [MDL 72832, 8-[4-(1,4-benzodioxan-2-ylmethylamino)butyl]-8-azaspiro[4.5]decane-7,9-dione], in the assay on 5-HT1A receptor, the “5-HT1A receptor ligand character (in words)” value is “selective and stereospecific”.
`O=C1CC2(CCCC2)CC(=O)N1CCCCN1CCN(c2ncccn2)CC1` [buspirone]: the ED50 worked out at 7.3 mg/kg in the assay on serotonin syndrome (0.25 h, agonist activity, first 15 minutes after administration, read-out: ED50, produced the serotonin syndrome) and 4.6 mg/kg in the assay with serotonin syndrome (antagonist activity, challenge with 5-MeODMT, read-out: ED50, antagonized 5-MeODMT-induced syndrome). In addition, in the assay with serotonin syndrome (in words), the “characterization in the serotonin syndrome test” value is “partial agonist”. Further, the “affinity for the serotonin 5-HT1A receptor (in words)” value in assay [2] is on record as “high affinity; also recorded: potent affinity”.
